From patent EP2361611A2, “Aqueous sustained-release drug delivery system for highly water-soluble electrolytic drugs” (Upm Pharmaceuticals, Inc., priority 2005, dated 2006)

Assay: Equilibrium binding study in a two-compartment dialysis cell, HPLC
Conditions: sodium alginate 0.877 g/L, 25°C
[1] = total drug concentration 4.97 M x 10^4
[2] = total drug concentration 5.47 M x 10^4
[3] = total drug concentration 5.96 M x 10^4
[4] = total drug concentration 6.96 M x 10^4
[5] = total drug concentration 7.95 M x 10^4
[6] = total drug concentration 8.95 M x 10^4
[7] = total drug concentration 9.94 M x 10^4
[8] = total drug concentration 14.91 M x 10^4
[9] = total drug concentration 19.88 M x 10^4
[10] = total drug concentration 24.86 M x 10^4
[11] = total drug concentration 30.40 M x 10^4
[12] = total drug concentration 41.20 M x 10^4
[13] = total drug concentration 50.70 M x 10^4

Protocol: The studies were performed with a two compartment plexiglass dialysis cell (Hollenbeck laboratory) and having a cellulose membrane (molecular weight cutoff of 6000 Daltons) Bel-Art Products (Pequannock, NJ) placed between the two cell compartments. […] The dialysis cell was shaken at 80 RPM in a thermostatic water bath at 25°C until equilibrium was reached (30 h). The solution was removed from the drug compartment and the concentrations of free drug and polymer-bound drug measured by high performance liquid chromatography ("HPLC").

SMILES: CC(C)NCC(O)COc1cccc2ccccc12 (stereo not drawn) [propranolol]
- Amount bound per gram of polymer [1]: 4.59 M x 10^4
- Bound drug concentration [1]: 4.03 M x 10^4
- Free drug concentration [1]: 0.94 M x 10^4
- r/(Df) [1]: 4.88 L/g
- Amount bound per gram of polymer [2]: 4.84 M x 10^4
- Bound drug concentration [2]: 4.25 M x 10^4
- Free drug concentration [2]: 1.22 M x 10^4
- r/(Df) [2]: 3.97 L/g
- Amount bound per gram of polymer [3]: 5.16 M x 10^4
- Bound drug concentration [3]: 4.53 M x 10^4
- Free drug concentration [3]: 1.43 M x 10^4
- r/(Df) [3]: 3.60 L/g
- Amount bound per gram of polymer [4]: 5.86 M x 10^4
- Bound drug concentration [4]: 5.14 M x 10^4
- Free drug concentration [4]: 1.82 M x 10^4
- r/(Df) [4]: 3.21 L/g
- Amount bound per gram of polymer [5]: 6.23 M x 10^4
- Bound drug concentration [5]: 5.46 M x 10^4
- Free drug concentration [5]: 2.49 M x 10^4
- r/(Df) [5]: 2.49 L/g
- Amount bound per gram of polymer [6]: 6.12 M x 10^4
- Bound drug concentration [6]: 5.37 M x 10^4
- Free drug concentration [6]: 3.57 M x 10^4
- r/(Df) [6]: 1.71 L/g
- Amount bound per gram of polymer [7]: 6.66 M x 10^4
- Bound drug concentration [7]: 5.83 M x 10^4
- Free drug concentration [7]: 4.10 M x 10^4
- r/(Df) [7]: 1.62 L/g
- Amount bound per gram of polymer [8]: 8.61 M x 10^4
- Free drug concentration [8]: 7.36 M x 10^4
- r/(Df) [8]: 1.17 L/g
- Amount bound per gram of polymer [9]: 9.81 M x 10^4
- Bound drug concentration [9]: 8.60 M x 10^4
- Free drug concentration [9]: 11.28 M x 10^4
- r/(Df) [9]: 0.87 L/g
- Amount bound per gram of polymer [10]: 10.73 M x 10^4
- Bound drug concentration [10]: 9.41 M x 10^4
- Free drug concentration [10]: 15.45 M x 10^4
- r/(Df) [10]: 0.60 L/g
- Amount bound per gram of polymer [11]: 11.49 M x 10^4
- Bound drug concentration [11]: 10.08 M x 10^4
- Free drug concentration [11]: 20.32 M x 10^4
- r/(Df) [11]: 0.57 L/g
- Amount bound per gram of polymer [12]: 12.37 M x 10^4
- Bound drug concentration [12]: 10.84 M x 10^4
- Free drug concentration [12]: 30.35 M x 10^4
- r/(Df) [12]: 0.41 L/g
- Amount bound per gram of polymer [13]: 12.93 M x 10^4
- Bound drug concentration [13]: 11.34 M x 10^4
- Free drug concentration [13]: 39.36 M x 10^4
- r/(Df) [13]: 0.33 L/g
